Test results: patent publication US12110316B2, “Cleavable activators of CXCR3 and methods of use” (University of Pittsburgh—Of the Commonwealth System of …, priority 2018, dated 2024)

Tested on: choroidal neovascularization (CNV)
Experiment: Laser-induced choroidal neovascularization (CNV) mouse model
Assay type: in vivo
Conditions: female C57BL/6J mice; 1 μg (FIG. 1A) or 3 μg (FIG. 1B) peptide injected in 1 μl in one eye immediately after laser; scramble peptide in contralateral eye; measured seven days after laser
Description: Since the histidine to serine substitution is a non-conserved amino acid change, experiments were performed to confirm that the engineered peptide retained the ability to block angiogenesis and fibrosis in a mouse model of choroidal neovascularization (CNV).
Mouse CNV was induced by laser photocoagulation-induced rupture of Bruch's membrane as previously described. Briefly, 7- to 8-week-old female C57BL/6J mice were anesthetized with ketamine hydrochloride (100 mg/kg body weight), and pupils were dilated with 1% tropicamide. Three burns of 532-nm diode laser photocoagulation (spot size, […]; duration, 0.1 sec; power, 120 mW) were delivered to each retina with the slit lamp delivery system of an OcuLight GL diode laser (Iridex, Mountain View, CA), using a coverslip as a contact lens to view the retina. Burns were performed at the 9, 12, and 3 o'clock positions of the posterior pole of the retina. […]
Immediately after laser treatment, mice were injected with either 1 μg (FIG. 1A) or 3 μg (FIG. 1B) of Peptide 110 (SEQ ID NO: 2), or one of three positive control peptides (Peptide 102, Peptide 105 or Peptide 107), in a volume of 1 μl in one eye and the contralateral eyes were injected with scramble peptide as control. […] After three washes with PBST, choroids were mounted on glass slides and were examined by fluorescence microscopy. […]

## PESKAIKNLLKAVHKEMSKRSP [Peptide 110, modified fragment of human CXCL10 with a cathepsin G and neutrophil elastase cleavage site]
  choroidal neovascularization (total area of choroidal NV at each rupture site); anti-angiogenic activity: significant reduction
